From US4138492A, “Aromatic amides of heterocyclic compounds and therapeutic compositions containing same” (priority 1974, dated 1979)
Like-named read-outs stand apart in the source and are kept apart here.

Tests used:
[1] = system: apomorphine-induced gnawing; experiment: Antiapomorphine activity (apomorphine-induced gnawing) in the rat; format: in vivo; conditions: for ED50: Rattus norvegicus, po, per os
Source text: A number of the compounds of the present invention were screened in parallel with metoclopramide for potential anti-emetic effects against apomorphine-induced gnawing in the rat and as local anaesthetics on the rat sciatic nerve (Table I).
*Antiapomorphine activity in rat scored as […]

[2] = system: electrically induced convulsions; experiment: Electrically induced convulsions in mice; format: in vivo
[3] = system: convulsions induced by strychnine; experiment: Strychnine-induced convulsions in the mouse; format: in vivo
[4] = system: writhing syndrome; experiment: Writhing syndrome induced by intra-peritoneal acetic acid in mice; format: in vivo; conditions: 300 mg/kg per os
Source text: The HCl-Clebopride salt does have antipyretic and analgesic activity.

[5] = Metabolism and pharmacokinetics in the rat; format: in vivo
[6] = Metabolism and pharmacokinetics in the rabbit; format: in vivo
[7] = system: gastric emptying time in humans; experiment: Gastric emptying in humans, evaluated by radiologist; format: in vivo
Source text: The evaluation was based on the subjective opinion of the radiologist in terms of the time required for the appearance of peristaltic waves and their capacity to evacuate. the stomach, according to the following scheme:

[8] = system: catatonia in rats
[9] = in vivo; conditions: rat, po
[10] = system: oxotremorine; experiment: Oxotremorine test in mice; conditions: mice previously treated with sub-threshold dose of oxotremorine
[11] = system: gastric emptying; experiment: Decrease of gastric emptying time in rats; format: in vivo, rat; conditions: compared with metoclopramide
[12] = system: apomorphine-induced vomiting; experiment: Apomorphine-induced vomiting in the dog; format: in vivo
[13] = Local anaesthetic activity in mice; format: in vivo; conditions: compared with metoclopramide or procaine
[14] = system: convulsions induced by leptazol; experiment: Leptazol-induced convulsions in the mouse; format: in vivo
[15] = system: cardiovascular and respiratory systems; experiment: Cardiovascular and respiratory effects in cats anaesthetized with chloralose; format: in vivo
Source text: HCl-Clebopride salt has weak effects on the cardiovascular and respiratory systems.

[16] = system: autonomic nervous system; experiment: Effect on the autonomic nervous system; conditions: in vivo
[17] = system: inflammation; experiment: Anti-inflammatory activity; conditions: in vivo
[18] = system: parasympathetic system; experiment: Parasympatholytic activity; conditions: in vivo
[19] = Therapeutic effect and side effects in humans; format: in vivo; conditions: suitable doses
Procedure: They may be used in doses of from 0.1 to 1000 mg per day for the treatment of nausea and vomiting due to gastrointestinal disorders, congestive heart failure, post operative conditions, etc., other gastrointestinal tract disorders such as dyspepsia, flatulence, bile regurgitations, hiatus hernia, peptic ulcer, reflux aerophagitis, gastritis, duodenitis and cholethiasis, and as an adjunt to radiography of the gastrointestinal tract and for overcoming gastrointestinal stasis for diagnostic or therapeutic purposes and a variety of conditions affecting the central nervous system such as acute and chronic psychoses, maniacal psychosis, schizophrenias, serious disturbances of behavior and non-melancholic depressive state and migraine.
A number of the instant compounds, particularly the hydrogen chloride, malate and methanesulfonate salts of Clebopride have been extensively tested in humans to determine maximum dosages and the therapeutic effects of the compounds. These compounds have been administered to humans orally and parenterally.
Dosages of between 0.1 and 30 mg per day have been shown useful depending upon the length of treatment and therapeutic effect desired.

[20] = system: spontaneous motor activity; experiment: Spontaneous motor activity in the mouse
[21] = system: incoordination; experiment: Incoordination on accelerating rota-rod in the mouse
[22] = 2 mg, compared with 20 mg of metoclopramide
[23] = cats, slow intravenous infusion 1 mg/kg/min. to total 10 mg/kg

COc1cc(N)c(Cl)cc1C(=O)NC1CCN(Cc2ccccc2)CC1 [Clebopride, N-[4'-(1'-benzyl)-piperidyl]-2-methoxy-4-amino-5-chloro-benzamide]
ED50 ([1]; rats, Table III, read-out: Antiapomorphine Activity, Rats, ED50 (95% confidence limits)): 1.85 mg/kg
potency in preventing electrically induced convulsions ([2]; mice): somewhat more potent than metoclopramide
inhibition of convulsions induced by strychnine [3]: neither Clebopride nor metoclopramide appear to inhibit convulsions induced by strychnine
inhibition of writhing syndrome [4]: almost completely inhibited the writhing syndrome
pharmacokinetics after intravenous administration ([5]; intravenous): follows a similar pattern in both species
pharmacokinetics after intravenous administration ([6]; intravenous): follows a similar pattern in both species
No. of Patients with + (no effect) ([7]; 0.2 mg by mouth, 6 patients): 0
No. of Patients with ++ (moderate effect) ([7]; 0.2 mg by mouth, 6 patients): 0
No. of Patients with +++ (good effect) ([7]; 0.2 mg by mouth, 6 patients): 6
No. of Patients with ++++ (maximum effect) ([7]; 0.2 mg by mouth, 6 patients): 0
contraction of the stomach ([7]; 0.2 mg, compared with 20 mgs of metoclopramide): as rapid and forceful contraction of the stomach as 20 mgs of metoclopramide
No. of Patients with + (no effect) ([7]; 1 mg by mouth, 6 patients): 1
No. of Patients with ++ (moderate effect) ([7]; 1 mg by mouth, 6 patients): 2
No. of Patients with +++ (good effect) ([7]; 1 mg by mouth, 6 patients): 3
No. of Patients with ++++ (maximum effect) ([7]; 1 mg by mouth, 6 patients): 0
No. of Patients with + (no effect) ([7]; 2 mg by mouth, 8 patients): 0
No. of Patients with ++ (moderate effect) ([7]; 2 mg by mouth, 8 patients): 2
No. of Patients with +++ (good effect) ([7]; 2 mg by mouth, 8 patients): 3
No. of Patients with ++++ (maximum effect) ([7]; 2 mg by mouth, 8 patients): 3
contraction of the stomach [7, 22]: more forceful contraction than 20 mg of metoclopramide
onset of action [7, 22]: more rapid onset of action
No. of Patients with + (no effect) ([7]; 5 mg by mouth, 9 patients): 0
No. of Patients with ++ (moderate effect) ([7]; 5 mg by mouth, 9 patients): 2
No. of Patients with +++ (good effect) ([7]; 5 mg by mouth, 9 patients): 0
No. of Patients with ++++ (maximum effect) ([7]; 5 mg by mouth, 9 patients): 7
catatonia ([8]; rat, in words): noted in the rat
antiemetic doses compared with those causing catatonia ([8]; rats, Table III): exhibits antiemetic activity (anti-apomorphine activity) at doses which are far removed from those causing catatonia
TD50 [9]: 47.6 mg/kg
salivation and tremors [10]: capable of causing salivation and tremors

COc1cc(N)c(Cl)cc1C(=O)NC1CCN(Cc2ccccc2)CC1 [Compound 2, N-[4'-(1'-benzyl)-piperidyl]-2-methoxy-4-amino-5-chloro-benzamide]
ED50 ([1]; Table I, read-out: ED50 Values): ~3 mg/kg
activity as an anti-emetic ([1]; compared with metoclopramide, from Table I): more active as an anti-emetic
ability to decrease gastric emptying time, potency [11]: potency similar to that of metoclopramide
activity against apomorphine-induced vomiting [12]: high activity
ED50 ([12]; Canis lupus familiaris, po, per os, Table II, read-out: ED50 (95% confidence limits), apomorphine induced vomiting): 0.0435 mg/kg
potency relative to metoclopramide ([12]; oral route): approximately 8 times
local anaesthetic potency [13]: somewhat greater than that of either metoclopramide or procaine
anti-convulsant activity ([2]; mouse, in vivo): has anti-convulsant activity
inhibition of clonic seizures induced by leptazol [14]: apparently not clonic seizures
inhibition of tonic convulsions (antileptazol) [14]: inhibits tonic convulsions
blood pressure [15, 23]: slight fall
heart rate [15, 23]: slight fall
respiratory movements [15, 23]: slowing of respiratory movements
effects on the cardiovascular and respiratory systems ([15]; in vivo): weak effects
effect on the autonomic nervous system [16]: does not have an appreciable effect
anti-inflammatory activity [17]: weak anti-inflammatory activity
parasympatholytic activity [18]: no appreciable parasympatholytic activity
N-Debenzylation [5]: major metabolic reaction
cleavage of the amide bond [5]: does not appear to be a major matabolic reaction
extent of metabolism [5]: extensively metabolized
unchanged drug excreted in the urine [5]: Only very little
N-Debenzylation [6]: major metabolic reaction
cleavage of the amide bond [6]: does not appear to be a major matabolic reaction
conjugation with glucuronic acid and/or sulphate [6]: occurs at a large extent in the rabbit
extent of metabolism [6]: extensively metabolized
unchanged drug excreted in the urine [6]: Only very little
side effects [19]: virtually free of side effects
spontaneous motor activity [20]: inhibit spontaneous motor activity
incoordination [21]: cause incoordination
